Test results reported in patent US8779141B2, “Viral inhibitors” (Gilead Sciences, Inc., priority 2002, dated 2014).
Values after ≈ are worked out from the molar mass of the structure shown. Like-named read-outs stand apart in the source and are kept apart here.

Tests used:
BVDV-1 (strain PE515) = experiment: Anti-BVDV assay, virus-induced cytopathic effect in MDBK cells (MTS); assay type: cell-based, Bovine Viral Diarrhea Virus; conditions: Bovine viral diarrhea virus isolates and strains
Protocol: Madin-Darbey Bovine Kidney (MDBK) cells were maintained in Dulbecco's modified Eagle medium (DMEM) supplemented with BVDV-free 5% fetal calf serum (DMEME-FCS) at 37° C. in a humidified, 5% CO2 atmosphere. BVDV-1 (strain PE515) was used to assess the antiviral activity in MDBK cells. Vero cells were maintained in the same way as MDBK cells. Vero cells were infected with Coxsackie B3 virus (strain Nancy).
Ninety-six-well cell culture plates were seeded with MDBK cells in DMEM-FCS so that cells reached 24 hr later confluency. Then medium was removed and serial 5-fold dilutions of the test compounds were added in a total volume of 100 ul, after which the virus inoculum (100 ul) was added to each well. […] Uninfected cells and cells receiving virus without compound were included in each assay plate. After 5 days, medium was removed and 90 μl of DMEM-FCS and 10 ul of MTS/PMS solution (Promega) was added to each well. Following a 2 hr incubation period at 37° C. the optical density of the wells was read at 498 nm in a microplate reader.

[1] = Cytostatic effect on exponentially growing MDBK cells (MTS); assay type: cell-based, Bovine; conditions: bovine; Table 9; reduction of growth of exponentially growing MDBK cells by 50%; mean of 2-5 determinations
Protocol: Madin-Darbey Bovine Kidney (MDBK) cells were maintained in Dulbecco's modified Eagle medium (DMEM) supplemented with BVDV-free 5% fetal calf serum ([…]) at 37° C. in a humidified, 5% CO2 atmosphere. […] Vero cells were maintained in the same way as MDBK cells. […] The effect of the drugs on exponentially growing MDBK cells was assessed as follows. Cells were seeded at a density of 5000 cell/well in 96 well plates in MEM medium (Gibco) supplemented with 10% fetal calf serum, 2 mM L-glutamine (Life Technologies) and bicarbonate (Life Technologies). […] Cultures were then again further incubated for 3 days after which the effect on cell growth was quantified by means of the MTS method (Promega).

[2] = Table 9, reduction of virus induced cytopathic effect in MDBK cells by 50%, BVDV strain PE515, mean of 2-5 determinations, read-out: EC50

Structure (SMILES) | EC50 (BVDV-1 (strain PE515); [2]) [µg/mL] | CC50 at 3 days [1] [µg/mL] | EC50 (BVDV-1 (strain PE515); MDBK) [µg/mL]
Fc1ccc(Cn2ccc3nc(-c4cc(F)ccc4F)nc-3c2)c(F)c1 [GPC-13, 2-(2,5-Difluorophenyl)-5-[(2,4-difluorophenyl)methyl]-5H-imidazo[4,5-c]pyridine] | 0.067 (≈ 0.188 µM) | > 100 | 
Fc1cccc(F)c1-c1nc2ccn(Cc3ccccc3)cc-2n1 [GPJN-1, 5-Benzyl-2-(2,6-difluorophenyl)-5H-imidazo[4,5-c]pyridine] | 0.24 (≈ 0.747 µM) | > 83.3 | 
Fc1cccc(F)c1Cn1ccc2nc(-c3ccccc3)nc-2c1 [GPJN-3, 5-[(2,6-Difluorophenyl)methyl]-2-phenyl-5H-imidazo[4,5-c]pyridine] | 0.06 (≈ 0.187 µM) | 60 (≈ 187 µM) | 
c1ccc(Cn2ccc3nc(-c4ccccc4)nc-3c2)cc1 [GPJN-4, 5-Benzyl-2-phenyl-5H-imidazo[4,5-c]pyridine] | 0.04 (≈ 0.14 µM) | 46 (≈ 161 µM) | 
Clc1ccccc1Cn1ccc2nc(-c3ccccc3)nc-2c1 [GPJN-7, 5-[(2-Chlorophenyl)methyl]-2-phenyl-5H-imidazo[4,5-c]pyridine] | 0.042 (≈ 0.131 µM) | 22 (≈ 68.8 µM) | 
Clc1cccc(Cn2ccc3nc(-c4ccccc4)nc-3c2)c1 [GPJN-8, 5-[(3-Chlorophenyl)methyl]-2-phenyl-5H-imidazo[4,5-c]pyridine] | 0.086 (≈ 0.269 µM) | 51 (≈ 159 µM) | 
Cl.Clc1ccc(Cn2ccc3nc(-c4ccccc4)nc-3c2)cc1 [GPJN-9 xHCl, 5-[(4-Chlorophenyl)methyl]-2-phenyl-5H-imidazo[4,5-c]pyridine hydrochloride] | 0.016 |  | 
Clc1ccc(Cn2ccc3nc(-c4ccccc4)nc-3c2)cc1 [GPJN-9, 5-[(4-Chlorophenyl)methyl]-2-phenyl-5H-imidazo[4,5-c]pyridine] | 0.049 (≈ 0.153 µM) |  | 
COc1ccccc1Cn1ccc2nc(-c3ccccc3)nc-2c1 [GPJN-11, 5-[(2-Methoxyphenyl)methyl]-2-phenyl-5H-imidazo[4,5-c]pyridine] | 0.032 (≈ 0.101 µM) | 36 (≈ 114 µM) | 
COc1cccc(Cn2ccc3nc(-c4ccccc4)nc-3c2)c1 [GPJN-12, 5-[(3-Methoxyphenyl)methyl]-2-phenyl-5H-imidazo[4,5-c]pyridine] | 0.059 (≈ 0.187 µM) | 56 (≈ 178 µM) | 
COc1ccc(Cn2ccc3nc(-c4ccccc4)nc-3c2)cc1 [GPJN-13, 5-[(4-Methoxyphenyl)methyl]-2-phenyl-5H-imidazo[4,5-c]pyridine] | 0.043 (≈ 0.136 µM) | 45 (≈ 143 µM) | 
c1ccc(CCCn2ccc3nc(-c4ccccc4)nc-3c2)cc1 [GPJN-14, 2-Phenyl-5-(3-phenylpropyl)-5H-imidazo[4,5-c]pyridine] | 0.07 (≈ 0.223 µM) | 40 (≈ 128 µM) | 
Cc1ccc(Cn2ccc3nc(-c4ccccc4)nc-3c2)cc1 [GPJN-15, 5-[(4-Methylphenyl)methyl]-2-phenyl-5H-imidazo[4,5-c]pyridine] | 0.009 (≈ 0.0301 µM) | 29 (≈ 96.9 µM) | 
Fc1ccccc1Cn1ccc2nc(-c3ccccc3)nc-2c1 [GPJN-17, 5-[(2-Fluorophenyl)methyl]-2-phenyl-5H-imidazo[4,5-c]pyridine] | 0.097 (≈ 0.32 µM) | 50 (≈ 165 µM) | 
Fc1cccc(Cn2ccc3nc(-c4ccccc4)nc-3c2)c1 [GPJN-18, 5-[(3-Fluorophenyl)methyl]-2-phenyl-5H-imidazo[4,5-c]pyridine] | 0.019 (≈ 0.0626 µM) | 55 (≈ 181 µM) | 
Fc1ccc(Cn2ccc3nc(-c4ccccc4)nc-3c2)cc1 [GPJN-19, 5-[(4-Fluorophenyl)methyl]-2-phenyl-5H-imidazo[4,5-c]pyridine] | 0.013 (≈ 0.0429 µM) | 40 (≈ 132 µM) | 
Cc1ccccc1Cn1ccc2nc(-c3ccccc3)nc-2c1 [GPJN-20, 5-[(2-Methylphenyl)methyl]-2-phenyl-5H-imidazo[4,5-c]pyridine] | 0.165 (≈ 0.551 µM) | 28 (≈ 93.5 µM) | 
Cc1cccc(Cn2ccc3nc(-c4ccccc4)nc-3c2)c1 [GPJN-21, 5-[(3-Methylphenyl)methyl]-2-phenyl-5H-imidazo[4,5-c]pyridine] | 0.022 (≈ 0.0735 µM) | 22 (≈ 73.5 µM) | 
Brc1ccc(Cn2ccc3nc(-c4ccccc4)nc-3c2)cc1 [GPJN-22, 5-[(4-Bromophenyl)methyl]-2-phenyl-5H-imidazo[4,5-c]pyridine] | 0.029 (≈ 0.0796 µM) | 13 (≈ 35.7 µM) | 
N#Cc1ccc(Cn2ccc3nc(-c4ccccc4)nc-3c2)cc1 [GPJN-23, 4-[(2-Phenyl-5H-imidazo[4,5-c]pyridin-5-yl)methyl]-benzonitrile] | 0.014 (≈ 0.0451 µM) | 46 (≈ 148 µM) | 

Structure (SMILES) | EC50 (BVDV-1 (strain PE515); [2]) [µg/mL] | CC50 at 3 days [1] [µg/mL] | EC50 (BVDV-1 (strain PE515); MDBK) [µg/mL]
FC(F)(F)c1ccc(Cn2ccc3nc(-c4ccccc4)nc-3c2)cc1 [GPJN-24, 2-Phenyl-5-[[4-(trifluoromethyl)phenyl]methyl]-5H-imidazo[4,5-c]pyridine] | 0.04 (≈ 0.113 µM) | 21 (≈ 59.4 µM) | 
Clc1ccc(Cn2ccc3nc(-c4ccccc4)nc-3c2)s1 [GPJN-25, 5-[(5-Chloro-2-thienyl)methyl]-2-phenyl-5H-imidazo[4,5-c]pyridine] | 0.009 (≈ 0.0276 µM) | 36 (≈ 110 µM) | 
c1ccc(-c2nc3ccn(Cc4ccc5ccccc5c4)cc-3n2)cc1 [GPJN-26, 5-(2-Naphthalenylmethyl)-2-phenyl-5H-imidazo[4,5-c]pyridine] | 0.041 (≈ 0.122 µM) | > 100 | 
c1ccc(CCCCn2ccc3nc(-c4ccccc4)nc-3c2)cc1 [GPJN-27, 2-Phenyl-5-(4-phenylbutyl)-5H-imidazo[4,5-c]pyridine] | 0.945 (≈ 2.89 µM) | > 46 | 
CC(C)=CCn1ccc2nc(-c3ccccc3)nc-2c1 [GPJN-28, 5-(3-Methyl-2-butenyl)-2-phenyl-5H-imidazo[4,5-c]pyridine] | 0.325 (≈ 1.23 µM) | > 75 | 
c1ccc(-c2nc3ccn(Cc4ccncc4)cc-3n2)cc1 [GPJN-31, 2-Phenyl-5-(4-pyridinylmethyl)-5H-imidazo[4,5-c]pyridine] | 0.455 (≈ 1.59 µM) | > 100 | 
CC(c1ccccc1)n1ccc2nc(-c3ccccc3)nc-2c1 (stereo not drawn) [GPJN-33, 2-Phenyl-5-(1-phenylethyl)-5H-imidazo[4,5-c]pyridine] | 0.2 (≈ 0.668 µM) | 70 (≈ 234 µM) | 
c1ccc(-c2nc3ccn(Cc4ccccn4)cc-3n2)cc1 [GPJN-34, 2-Phenyl-5-(2-pyridinylmethyl)-5H-imidazo[4,5-c]pyridine] | 0.865 (≈ 3.02 µM) | > 100 | 
c1ccc(-c2nc3ccn(Cc4cccnc4)cc-3n2)cc1 [GPJN-35, 2-Phenyl-5-(3-pyridinylmethyl)-5H-imidazo[4,5-c]pyridine] | 0.365 (≈ 1.27 µM) | > 100 | 
c1ccc(-c2nc3ccn(CC4CCCCC4)cc-3n2)cc1 [GPJN-37, 5-(Cyclohexylmethyl)-2-phenyl-5H-imidazo[4,5-c]pyridine] | 0.161 (≈ 0.553 µM) | 22 (≈ 75.5 µM) | 
CC(C)CCn1ccc2nc(-c3ccccc3)nc-2c1 [GPJN-38, 5-(3-Methylbutyl)-2-phenyl-5H-imidazo[4,5-c]pyridine] | 0.235 (≈ 0.886 µM) | 50 (≈ 188 µM) | 
Fc1ccc(Cn2ccc3nc(-c4c(F)cccc4F)nc-3c2)cc1 [GPJN-39, 2-(2,6-Difluorophenyl)-5-[(4-fluorophenyl)methyl]-5H-imidazo[4,5-c]pyridine] | 0.245 (≈ 0.722 µM) | > 100 | 
Fc1cc(F)c(Cn2ccc3nc(-c4c(F)cccc4F)nc-3c2)c(F)c1 [GPJN-41, 2-(2,6-Difluorophenyl)-5-[(2,4,6-trifluorophenyl)methyl]-5H-imidazo[4,5-c]pyridine] | 0.58 (≈ 1.55 µM) | > 100 | 
CCc1nc2ccn(Cc3ccc(Br)cc3)cc-2n1 [GPJN-48, 5-[(4-Bromophenyl)methyl]-2-ethyl-5H-imidazo[4,5-c]pyridine] | 0.351 (≈ 1.11 µM) | > 100 | 
Brc1ccc(Cn2ccc3nc(-c4ccncc4)nc-3c2)cc1 [GPJN-49, 5-[(4-Bromophenyl)methyl]-2-(4-pyridinyl)-5H-imidazo[4,5-c]pyridine] | 0.18 (≈ 0.493 µM) | 62 (≈ 170 µM) | 
Brc1ccc(Cn2ccc3nc(-c4cccs4)nc-3c2)cc1 [GPJN-53, 5-[(4-Bromophenyl)methyl]-2-(2-thienyl)-5H-imidazo[4,5-c]pyridine] | 0.033 (≈ 0.0891 µM) | 66 (≈ 178 µM) | 
Clc1ccccc1-c1nc2ccn(Cc3ccc(Br)cc3)cc-2n1 [GPJN-54, 5-[(4-Bromophenyl)methyl]-2-(2-chlorophenyl)-5H-imidazo[4,5-c]pyridine] | 0.1 (≈ 0.251 µM) | 35 (≈ 87.8 µM) | 
Clc1cccc(-c2nc3ccn(Cc4ccc(Br)cc4)cc-3n2)c1 [GPJN-55, 5-[(4-Bromophenyl)methyl]-2-(3-chlorophenyl)-5H-imidazo[4,5-c]pyridine] | 0.06 (≈ 0.15 µM) | > 100 | 
Brc1ccc(Cn2ccc3nc(-c4ccc5ccccc5c4)nc-3c2)cc1 [GPJN-63, 5-[(4-Bromophenyl)methyl]-2-(2-naphthalenyl)-5H-imidazo[4,5-c]pyridine] | 0.0042 (≈ 0.0101 µM) | 4.3 (≈ 10.4 µM) | 
Brc1ccc(Cn2ccc3nc(-c4cccc(Br)c4)nc-3c2)cc1 [GPJN-65, 2-(3-Bromophenyl)-5-[(4-bromophenyl)methyl]-5H-imidazo[4,5-c]pyridine] |  | > 100 | 0.01 (≈ 0.0226 µM)
